Read-outs that look alike come from different tables or passages of the source.

37 compounds from patent publication US20090036420A1, “BENZAMIDE DERIVATIVES AND THEIR USE FOR TREATING CNS DISORDERS” (priority 2007, published 2009) can be followed below.

The test deals with T1, TAAR1 (Mus musculus, UniProt Q923Y8).
T1 construct: expressed in transfected cells; host or cells: HEK293 cells (ATCC #CRL-1573), stably transfected with pIRESneo2 expression plasmid; membrane preparation
Put plainly: Radioligand binding assay on membranes of HEK293 cells stably expressing TAAR1. Particulars: radioligand [3H]-rac-2-(1,2,3,4-tetrahydro-1-naphthyl)-2-imidazoline 60 nM, 4° C., 30 min. The procedure:
The Expand High Fidelity PCR System (Roche Diagnostics) was used with 1.5 mM Mg^2+ and purified PCR products were cloned into pCR2.1-TOPO cloning vector (Invitrogen) following the instructions of the manufacturer. PCR products were subcloned into the pIRESneo2 vector (BD Clontech, Palo Alto, Calif.), and expression vectors were sequence verified before introduction in cell lines.
For the generation of stably transfected cell lines HEK293 cells were transfected with the pIRESneo2 expression plasmids containing the TAAR coding sequences (described above) with Lipofectamine 2000 (Invitrogen) according to the instructions of the manufacturer, and 24 hrs post transfection the culture medium was supplemented with 1 mg/ml G418 (Sigma, Buchs, Switzerland). After a culture period of about 10 d clones were isolated, expanded and tested for responsiveness to trace amines (all compounds purchased from Sigma) with the cAMP Biotrak Enzyme immunoassay (EIA) System (Amersham) following the non-acetylation EIA procedure provided by the manufacturer.
Cells at confluence were rinsed with ice-cold phosphate buffered saline without Ca^2+ and Mg^2+ containing 10 mM EDTA and pelleted by centrifugation at 1000 rpm for 5 min at 4° C. The pellet was then washed twice with ice-cold phosphate buffered saline and cell pellet was frozen immediately by immersion in liquid nitrogen and stored until use at −80° C. Cell pellet was then suspended in 20 ml HEPES-NaOH (20 mM), pH 7.4 containing 10 mM EDTA, and homogenized with a Polytron (PT 3000, Kinematica) at 10,000 rpm for 10 s. The homogenate was centrifuged at 48,000×g for 30 min at 4° C. and the pellet resuspended in 20 ml HEPES-NaOH (20 mM), pH 7.4 containing 0.1 mM EDTA (buffer A), and homogenized with a Polytron at 10,000 rpm for 10 s. The homogenate was then centrifuged at 48,000×g for 30 min at 4° C. and the pellet resuspended in 20 ml buffer A, and homogenized with a Polytron at 10,000 rpm for 10 s. Protein concentration was determined by the method of Pierce (Rockford, Ill.). […] Non-specific binding was defined as the amount of [^3H]-rac-2-(1,2,3,4-tetrahydro-1-naphthyl)-2-imidazoline bound in the presence of the appropriate unlabelled ligand (10 μM). Competing ligands were tested in a wide range of concentrations (10 pM-30 μM). […] Each experiment was performed in duplicate. All incubations were terminated by rapid filtration through UniFilter-96 plates (Packard Instrument Company) and glass filter GF/C, pre-soaked for at least 2 h in polyethylenimine 0.3%, and using a Filtermate 96 Cell Harvester (Packard Instrument Company). The tubes and filters were then washed 3 times with 1 ml aliquots of cold buffer B. Filters were not dried and soaked in Ultima gold (45 μl/well, Packard Instrument Company) and bound radioactivity was counted by a TopCount Microplate Scintillation Counter (Packard Instrument Company).

The mark [1] stands for this setting: read-out: Ki value (μM) in mouse.

T1 sequence (Q923Y8 whole entry): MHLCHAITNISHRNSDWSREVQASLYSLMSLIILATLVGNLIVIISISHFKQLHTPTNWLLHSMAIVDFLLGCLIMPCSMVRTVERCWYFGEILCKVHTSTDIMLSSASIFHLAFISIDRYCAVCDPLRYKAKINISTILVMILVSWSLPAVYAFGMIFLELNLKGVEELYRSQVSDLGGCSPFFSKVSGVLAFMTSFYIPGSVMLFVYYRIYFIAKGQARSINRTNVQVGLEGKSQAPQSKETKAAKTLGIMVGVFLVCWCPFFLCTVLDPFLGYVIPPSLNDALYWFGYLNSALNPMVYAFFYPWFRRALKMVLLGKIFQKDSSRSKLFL

Regarding `COc1cccc(NC(=O)c2ccc(F)c(S(=O)(=O)N3CC(C)CC(C)C3)c2)c1` (racemic) [Example 167, (rac,meso)-3-(3,5-Dimethyl-piperidine-1-sulfonyl)-4-fluoro-N-(3-methoxy-phenyl)-benzamide], the Ki under setting [1] turned out to be 0.004 µM. Regarding `COc1cccc(NC(=O)c2ccc(N3CC(C)CC(C)C3)c(C(F)(F)F)c2)c1` (racemic) [Example 194, (rac,meso)-4-(3,5-Dimethyl-piperidin-1-yl)-N-(3-methoxy-phenyl)-3-trifluoromethyl-benzamide], under setting [1], the inhibition constant (Ki) is 0.007 µM. In the case of `O=C(Nc1ccccc1)c1ccc(Cl)c(C(F)(F)F)c1` [Example 6, 4-Chloro-N-phenyl-3-trifluoromethyl-benzamide], the Ki under setting [1] turned out to be 0.098 µM. As to `COc1cccc(NC(=O)c2ccc(Cl)c([N+](=O)[O-])c2)c1` [Example 12, 4-Chloro-N-(3-methoxy-phenyl)-3-nitro-benzamide], the Ki under setting [1] came to 0.037 µM. For the compound `COc1cccc(NC(=O)c2ccc(N3CCC(C)CC3)c([N+](=O)[O-])c2)c1` [Example 27, N-(3-Methoxy-phenyl)-4-(4-methyl-piperidin-1-yl)-3-nitro-benzamide], the Ki under setting [1] turned out to be 0.002 µM. Turning to `COc1cccc(NC(=O)c2ccc(Br)c([N+](=O)[O-])c2)c1` [Example 42, 4-Bromo-N-(3-methoxy-phenyl)-3-nitro-benzamide], under setting [1], the Ki came to 0.021 µM. As for `O=C(Nc1cccc(Cl)c1)c1cnc(Cl)c(Cl)c1` [Example 47, 5,6-Dichloro-N-(3-chloro-phenyl)-nicotinamide], the Ki under setting [1] stood at 0.079 µM. Consider `COc1cccc(NC(=O)c2ccc(F)c(Cl)c2)c1` [Example 70, 3-Chloro-4-fluoro-N-(3-methoxy-phenyl)-benzamide], for which the Ki under setting [1] turned out to be 0.1 µM. `COc1cccc(NC(=O)c2ccc(F)c(C(F)(F)F)c2)c1` [Example 73, 4-Fluoro-N-(3-methoxy-phenyl)-3-trifluoromethyl-benzamide]: the inhibition constant Ki under setting [1] was 0.03 µM. Regarding `COc1cccc(NC(=O)c2cnc(Cl)c(Cl)c2)c1` [Example 78, 5,6-Dichloro-N-(3-methoxy-phenyl)-nicotinamide], the Ki under setting [1] turned out to be 0.048 µM. `O=C(Nc1cccc(Cl)c1)c1ccc(N2CCNCC2)nc1` [Example 84, N-(3-Chloro-phenyl)-6-piperazin-1-yl-nicotinamide]: the inhibitory constant (Ki) under setting [1] was determined as 0.076 µM. Consider `COc1cccc(NC(=O)c2ccc(F)c([N+](=O)[O-])c2)c1` [Example 85, 4-Fluoro-N-(3-methoxy-phenyl)-3-nitro-benzamide], for which the inhibition constant (Ki) under setting [1] is 0.09 µM.

`CCCNc1ccc(C(=O)Nc2cccc(OC)c2)cc1[N+](=O)[O-]` [Example 87, N-(3-Methoxy-phenyl)-3-nitro-4-propylamino-benzamide]: the Ki under setting [1] turned out to be 0.004 µM.

For `COc1cccc(NC(=O)c2ccc(NCc3ccccc3)c([N+](=O)[O-])c2)c1` [Example 88, 4-Benzylamino-N-(3-methoxy-phenyl)-3-nitro-benzamide], under setting [1], the Ki is 0.005 µM. As to `CCNc1ccc(C(=O)Nc2cccc(OC)c2)cc1[N+](=O)[O-]` [Example 90, 4-Ethylamino-N-(3-methoxy-phenyl)-3-nitro-benzamide], the Ki under setting [1] stood at 0.024 µM. `COc1cccc(NC(=O)c2ccc(NC(C)C)c([N+](=O)[O-])c2)c1` [Example 91, 4-Isopropylamino-N-(3-methoxy-phenyl)-3-nitro-benzamide]: under setting [1], the inhibitory constant (Ki) is 0.012 µM. Regarding `COc1cccc(NC(=O)c2ccc(N3CCC3)c([N+](=O)[O-])c2)c1` [Example 92, 4-Azetidin-1-yl-N-(3-methoxy-phenyl)-3-nitro-benzamide], under setting [1], the Ki turned out to be 0.029 µM. `COc1cccc(NC(=O)c2ccc(N3CCCC3)c([N+](=O)[O-])c2)c1` [Example 93, N-(3-Methoxy-phenyl)-3-nitro-4-pyrrolidin-1-yl-benzamide]: the Ki under setting [1] stood at 0.013 µM. In the case of `COc1cccc(NC(=O)c2ccc(N3CCCCC3)c([N+](=O)[O-])c2)c1` [Example 94, N-(3-Methoxy-phenyl)-3-nitro-4-piperidin-1-yl-benzamide], under setting [1], the inhibition constant Ki was determined as 0.012 µM.

Consider `COc1cccc(NC(=O)c2ccc(Nc3ccccc3)c([N+](=O)[O-])c2)c1` [Example 97, N-(3-Methoxy-phenyl)-3-nitro-4-phenylamino-benzamide], for which the Ki under setting [1] came out at 0.029 µM. With `CN1CCN(c2ccc(C(=O)Nc3cccc(Cl)c3)cn2)CC1` [Example 135, N-(3-Chloro-phenyl)-6-(4-methyl-piperazin-1-yl)-nicotinamide], under setting [1], the inhibition constant Ki came out at 0.009 µM.

As to `COc1cccc(NC(=O)c2ccc(N3CCCC3)c(C(F)(F)F)c2)c1` [Example 137, N-(3-Methoxy-phenyl)-4-pyrrolidin-1-yl-3-trifluoromethyl-benzamide], under setting [1], the inhibition constant (Ki) is 0.002 µM. In the case of `COCCNc1ccc(C(=O)Nc2cccc(OC)c2)cc1C(F)(F)F` [Example 139, 4-(2-Methoxy-ethylamino)-N-(3-methoxy-phenyl)-3-trifluoromethyl-benzamide], the Ki under setting [1] came out at 0.077 µM. As for `COc1cccc(NC(=O)c2ccc(N3CCC3)c(C(F)(F)F)c2)c1` [Example 140, 4-Azetidin-1-yl-N-(3-methoxy-phenyl)-3-trifluoromethyl-benzamide], the Ki under setting [1] is 0.016 µM. On the same count and under the same terms, to `COc1cccc(NC(=O)c2ccc(N3CCCCC3)c(C(F)(F)F)c2)c1` [Example 141, N-(3-Methoxy-phenyl)-4-piperidin-1-yl-3-trifluoromethyl-benzamide] belongs 0.038 µM; to `COc1cccc(NC(=O)c2ccc(N3CCC(C)CC3)c(C(F)(F)F)c2)c1` [Example 143, N-(3-Methoxy-phenyl)-4-(4-methyl-piperidin-1-yl)-3-trifluoromethyl-benzamide], 0.007 µM; to `CCCNc1ccc(C(=O)Nc2cccc(OC)c2)cc1C(F)(F)F` [Example 144, N-(3-Methoxy-phenyl)-4-propylamino-3-trifluoromethyl-benzamide], 0.032 µM. Consider `CCCCNc1ccc(C(=O)Nc2cccc(OC)c2)cc1C(F)(F)F` [Example 145, 4-Butylamino-N-(3-methoxy-phenyl)-3-trifluoromethyl-benzamide], for which, where the note is “Ki value (μM) in mouse”, the Ki is 0.01 µM. Regarding `COc1cccc(NC(=O)c2ccc(NCc3ccccc3)c(C(F)(F)F)c2)c1` [Example 147, 4-Benzylamino-N-(3-methoxy-phenyl)-3-trifluoromethyl-benzamide], the Ki under setting [1] stood at 0.005 µM. On the same count and under the same terms, next, `CCNc1ccc(C(=O)Nc2cccc(OC)c2)cc1C(F)(F)F` [Example 148, 4-Ethylamino-N-(3-methoxy-phenyl)-3-trifluoromethyl-benzamide]: 0.022 µM.

As to `COc1cccc(NC(=O)c2ccc(NC(C)C)c(C(F)(F)F)c2)c1` [Example 149, 4-Isopropylamino-N-(3-methoxy-phenyl)-3-trifluoromethyl-benzamide], the inhibitory constant (Ki) under setting [1] turned out to be 0.022 µM. `COc1cccc(NC(=O)c2ccc(N3CCOCC3)c(C(F)(F)F)c2)c1` [Example 150, N-(3-Methoxy-phenyl)-4-morpholin-4-yl-3-trifluoromethyl-benzamide] displayed a Ki (Ki value (μM) in mouse) of 0.086 µM. For `CNc1ncc(C(=O)Nc2cccc(Cl)c2)cc1Cl` [Example 151, 5-Chloro-N-(3-chloro-phenyl)-6-methylamino-nicotinamide], the Ki under setting [1] was found to be 0.096 µM. Take `CC(C)Nc1ncc(C(=O)Nc2cccc(Cl)c2)cc1Cl` [Example 152, 5-Chloro-N-(3-chloro-phenyl)-6-isopropylamino-nicotinamide]: the Ki under setting [1] came out at 0.027 µM. Turning to `COCCNc1ncc(C(=O)Nc2cccc(Cl)c2)cc1Cl` [Example 153, 5-Chloro-N-(3-chloro-phenyl)-6-(2-methoxy-ethylamino)-nicotinamide], the inhibition constant (Ki) under setting [1] amounted to 0.035 µM. With `O=C(Nc1cccc(Cl)c1)c1cnc(N2CCCC2)c(Cl)c1` [Example 154, 5-Chloro-N-(3-chloro-phenyl)-6-pyrrolidin-1-yl-nicotinamide], the Ki under setting [1] is 0.014 µM. For the setting “Ki value (μM) in mouse”, `CC1CCN(c2ncc(C(=O)Nc3cccc(Cl)c3)cc2Cl)CC1` [Example 155, 3′-Chloro-4-methyl-3,4,5,6-tetrahydro-2H-[1,2′]bipyridinyl-5′-carboxylicacid (3-chloro-phenyl)-amide] gave a Ki of 0.023 µM.

Broadly, the Ki is the dissociation constant of the complex between target and ligand, obtained from inhibition or displacement.
